The subject of one assay is Enterococcus faecalis. It is filed as cell-based. The note with it: strain not given, Table 14, preliminary screening. How it is done:
MIC values for compounds (1-11) were assessed using 96-well plate format with Mueller Hinton (MH) broth, using the two-fold dilution method, previously reported in standard methods provided by Clinical and Laboratory Standards S8 Institute (CLSI). Kanamycin and ampicillin were used as antibacterial control agents. According to the reference, the compounds (1-11) were first dissolved in DMSO+0.1% TFA at a concentration of 3.2 mg/mL and 4 μL was serially diluted in 96 μL of MH broth. Then, sequential 2-fold serial dilutions of the mix were diluted in 50 μL MH broth and 50 μL cell cultures were added to wells. […] All assays were carried out in triplicate.

A further assay relates to Pseudomonas aeruginosa. It is filed as cell-based. As to conditions: Table 15, unit inferred. From the text: The experiments were repeated three times.
The next assay has as its system Escherichia coli. The note with it: for MIC: Escherichia coli ATCC 25922, Table 14, preliminary screening; for MIC value: Table 15, unit inferred. How it is done:
(§1) MIC screening of the peptides against a panel of ATCC and clinical strains was performed using broth microdilution method.^1 Briefly, peptides stock solutions in DMSO (0.1/G TFA) were diluted into Mueller Hinton Broth (MHB), followed by two-fold serial dilution in a 96-well plate. Bacteria culture in mid-log phase was diluted into MHB to yield […] colony-forming units (CFU)/mL. Equal volume of the starting inoculum was added to the peptide samples, then incubated for 18-20 h (37° C., 120 rpm). OD600 of the samples was then measured using Tecan Infinite M200 (TECAN, Männedorf, Switzerland). MIC is defined as the lowest peptide concentration to achieve more than 90% reduction in OD600 relative to the drug-free control. The experiments were repeated three times. Colistin-resistant clinical isolates are a kind gift from Dr. Jeanette Koh (National University Hospital, Singapore). Multidrug-resistant clinical isolates are a kind gift from Dr. Lakshminarayanan Rajamani (Singapore Eye Research Institute, Singapore).
(§2) Kanamycin and ampicillin were used as antibacterial control agents. […] Then, sequential 2-fold serial dilutions of the mix were diluted in 50 μL MH broth and 50 μL cell cultures were added to wells. […] All assays were carried out in triplicate.

The test system of another assay is Acinetobacter baumannii. The note with it: for MIC value: Table 15, unit inferred; for MIC: Table 14, preliminary screening. Here is the method:
as §1, §2

A further assay concerns Staphylococcus aureus. As to conditions: Staphylococcus aureus ATCC 29737; Table 14, preliminary screening. How it is done:
as §1, §2

The subject of assay [1] is Gram-positive and Gram-negative bacteria. As to conditions: E. cloacae. Here is the method:
as §1, §2

Another assay relates to Enterobacter cloacae. As to conditions: for MIC value: Table 15, unit inferred; for MIC: Enterobacter cloacae, strain not given, Table 14, preliminary screening. How it is done:
as §1, §2

In another assay the test system is Klebsiella pneumoniae. The note with it: for MIC value: Table 15, unit inferred; for MIC: Klebsiella pneumoniae ATC 700603, Table 14, preliminary screening. How it is done: as §1, §2
[2] abbreviates: Acinetobacter baumanii ATCC 19606.

In brackets after ≈: the same amount, converted by molar mass. Read-outs that look alike come from different tables or passages of the source. No end group written: not given here. Some results are limits rather than exact numbers.

`CC(C)[C@@H]1NC(=O)[C@@H](NC(=O)CNC(=O)[C@H](CCC(=O)O)NC(=O)CNC(=O)[C@@H](N)CCCNC(=N)N)Cc2c[nH]c3cc(ccc23)C(CCNC(=N)N)[C@@H](C(=O)N[C@@H](C)C(=O)N[C@@H](Cc2ccc(O)cc2)C(=O)N[C@H]2Cc3c[nH]c4cc(ccc34)C(CCCN)[C@@H](C(=O)N[C@@H](CCCNC(=N)N)C(=O)N[C@@H](Cc3ccccc3)C(=O)O)NC(=O)[C@H](C)NC2=O)NC1=O` (stereo partly shown) [Compound 24, xenorceptide D1]: the MIC in the assay with Enterococcus faecalis was 64 µg/mL (≈ 36 µM); in the assay with Escherichia coli it was 1 µg/mL (≈ 0.562 µM); against Acinetobacter baumannii (setting [2]) it was 2 µg/mL (≈ 1.12 µM); in the assay on Staphylococcus aureus, greater than 64 µg/mL; against Enterobacter cloacae, 4 µg/mL (≈ 2.25 µM); against Klebsiella pneumoniae it was 2 µg/mL (≈ 1.12 µM). The MIC value with Pseudomonas aeruginosa (Pseudomonas aeruginosa DM4150R) is 32 µg/mL (≈ 18 µM); in the assay on Pseudomonas aeruginosa (Pseudomonas aeruginosa DM23376), 16 µg/mL (≈ 9 µM); against Pseudomonas aeruginosa (Pseudomonas aeruginosa DR4877/07), 16 µg/mL (≈ 9 µM); in the assay on Pseudomonas aeruginosa (Pseudomonas aeruginosa DR5790/07) it was 16 µg/mL (≈ 9 µM); in the assay with Escherichia coli (Escherichia coli M2), 4 µg/mL (≈ 2.25 µM); with Escherichia coli (Escherichia coli M6) it was 2 µg/mL (≈ 1.12 µM). For the same molecule, the MIC value was 2 µg/mL (≈ 1.12 µM) against Escherichia coli (Escherichia coli M10); 2 µg/mL (≈ 1.12 µM) in the assay on Escherichia coli (Escherichia coli M11); 4 µg/mL (≈ 2.25 µM) in the assay on Acinetobacter baumannii (Acinetobacter baumanii ACβA1001); 4 µg/mL (≈ 2.25 µM) in the assay with Acinetobacter baumannii (Acinetobacter baumanii ACβA1002); 4 µg/mL (≈ 2.25 µM) in the assay on Acinetobacter baumannii (Acinetobacter baumanii ACβA1003); 4 µg/mL (≈ 2.25 µM) in the assay with Acinetobacter baumannii (Acinetobacter baumanii ACβA1004). For the same molecule, the MIC value against Acinetobacter baumannii (setting [2]) stood at 2 µg/mL (≈ 1.12 µM); in the assay on Enterobacter cloacae (Enterobacter cloacae ATCC 13047), 4 µg/mL (≈ 2.25 µM); in the assay on Enterobacter cloacae (Enterobacter cloacae CRE1010) it was 4 µg/mL (≈ 2.25 µM); in the assay with Enterobacter cloacae (Enterobacter cloacae CRE1014), 8 µg/mL (≈ 4.5 µM); with Enterobacter cloacae (Enterobacter cloacae CRE1015), 8 µg/mL (≈ 4.5 µM); in the assay with Enterobacter cloacae (Enterobacter cloacae CRE1016), 8 µg/mL (≈ 4.5 µM). Besides, the MIC value turned out to be 8 µg/mL (≈ 4.5 µM) in the assay with Enterobacter cloacae (Enterobacter cloacae CRE1017); 1 µg/mL (≈ 0.562 µM) in the assay with Klebsiella pneumoniae (ATCC 25922, printed under Klebsiella pneumoniae); 2 µg/mL (≈ 1.12 µM) in the assay with Klebsiella pneumoniae (CRE1006, Klebsiella pneumoniae); 2 µg/mL (≈ 1.12 µM) in the assay with Klebsiella pneumoniae (Klebsiella pneumoniae ATCC 700603); 4 µg/mL (≈ 2.25 µM) against Klebsiella pneumoniae (Klebsiella pneumoniae CRE 1007); 4 µg/mL (≈ 2.25 µM) in the assay on Klebsiella pneumoniae (Klebsiella pneumoniae CRE1008). Further, the values for the MIC value in the assay with Klebsiella pneumoniae (Klebsiella pneumoniae CRE1011) and in the assay with Klebsiella pneumoniae (Klebsiella pneumoniae CRE1012) were 2 µg/mL (≈ 1.12 µM) and 4 µg/mL (≈ 2.25 µM), respectively. The molecule further showed an MIC value range in assay [1] (E. coli, A. baumannii and K. pneumoniae) of 1 to 4 µg/mL.
In the case of RGEGWVRAYWAKRF [Compound 26], the MIC in the assay with Enterococcus faecalis, against Escherichia coli, in the assay on Acinetobacter baumannii (setting [2]), against Staphylococcus aureus, against Enterobacter cloacae and in the assay with Klebsiella pneumoniae was greater than 64 µg/mL in each case. In addition, the antibacterial activity entry in assay [1] (panel of E. coli, K. pneumoniae, A. baumannii, E. faecalis and S. aureus, preliminary screening) is reported as “not active”.

The record behind these values is US20260049104A1, “PEPTIDES WITH ANTIMICROBIAL PROPERTIES” (priority 2022, published 2026).
